# Experimental data taken from the supplement of paper PMC10307832.
# How the values were obtained:
# Assay in all cases: relative viability (nuclei count vs DMSO), 5 days (fraction); higher = more cells survive
# [1] = tested on: NCI-H1792
# Outline: (§1)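 Medians of duplicate plates are given as relative viability. That measure is the nuclei count in treated wells divided by the count in vehicle wells. Counts were taken on 4× images of lung cancer cell lines in 1536-well plates, 5 days after pin-tool dosing the day after seeding with one drug alone or a fixed anchor-drug dose plus five library-drug doses (not always all listed) in √10 steps.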
# [2] = tested on: NCI-H661
# Outline: as §1
# [3] = tested on: NCI-H1915
# Outline: as §1
# [4] = tested on: HCC-15
# Outline: as §1
# [5] = tested on: HARA
# Outline: as §1
# [6] = tested on: LC-2-ad
# Outline: as §1
# [7] = tested on: LCLC-97TM1
# Outline: as §1
# [8] = tested on: PC-3 [JPC-3]
# Outline: as §1
# [9] = tested on: LU99A
# Outline: as §1
# [10] = tested on: SK-LU-1
# Outline: as §1
# [11] = tested on: NCI-H23
# Outline: as §1
# [12] = tested on: EMC-BAC-2
# Outline: as §1
# [13] = tested on: NCI-H1944
# Outline: as §1
# [14] = tested on: ChaGo-K-1
# Outline: as §1
# [15] = tested on: NCI-H2126
# Outline: as §1
# [16] = tested on: NCI-H460
# Outline: as §1
# [17] = tested on: NCI-H1437
# Outline: as §1
# [18] = tested on: H3255
# Outline: as §1
# [19] = tested on: HCC-827
# Outline: as §1
# [20] = tested on: EKVX
# Outline: as §1
# [21] = tested on: NCI-H441
# Outline: as §1
# [22] = tested on: NCI-H322M
# Outline: as §1
# [23] = tested on: NCI-H1793
# Outline: as §1
smiles,measurement,setting,value
CCCCCCCCCCCC1=C(O)C(=O)C=C(O)C1=O [Embelin] + C[C@@H](Oc1cc(-c2cnn(C3CCNCC3)c2)cnc1N)c1c(Cl)ccc(F)c1Cl [Crizotinib] (partner 1 µM),relative viability,[1]; first compound 0.08 µM,0.997
same,relative viability,[1]; first compound 0.8 µM,0.974
same,relative viability,[1]; first compound 2.53 µM,1.19
same,relative viability,[1]; first compound 8 µM,0.964
same,relative viability,[2]; first compound 0.08 µM,1.09
same,relative viability,[2]; first compound 0.8 µM,1.09
same,relative viability,[2]; first compound 2.53 µM,0.846
same,relative viability,[2]; first compound 8 µM,0.997
same,relative viability,[3]; first compound 0.08 µM,0.988
same,relative viability,[3]; first compound 0.8 µM,1.03
same,relative viability,[3]; first compound 2.53 µM,0.993
same,relative viability,[3]; first compound 8 µM,0.97
same,relative viability,[4]; first compound 0.08 µM,0.779
same,relative viability,[4]; first compound 0.8 µM,0.852
same,relative viability,[4]; first compound 2.53 µM,1
same,relative viability,[4]; first compound 8 µM,0.907
same,relative viability,[5]; first compound 0.08 µM,1.03
same,relative viability,[5]; first compound 0.8 µM,1.08
same,relative viability,[5]; first compound 2.53 µM,1.12
same,relative viability,[5]; first compound 8 µM,1.23
same,relative viability,[6]; first compound 0.08 µM,0.451
same,relative viability,[6]; first compound 0.8 µM,0.564
same,relative viability,[6]; first compound 2.53 µM,0.472
same,relative viability,[6]; first compound 8 µM,0.427
same,relative viability,[7]; first compound 0.8 µM,0.517
same,relative viability,[7]; first compound 2.53 µM,0.358
same,relative viability,[7]; first compound 8 µM,0.312
same,relative viability,[8]; first compound 0.08 µM,0.948
same,relative viability,[8]; first compound 0.8 µM,1.01
same,relative viability,[8]; first compound 2.53 µM,1.06
same,relative viability,[8]; first compound 8 µM,0.987
same,relative viability,[9]; first compound 0.08 µM,0.605
same,relative viability,[9]; first compound 0.8 µM,0.736
same,relative viability,[9]; first compound 2.53 µM,0.55
same,relative viability,[9]; first compound 8 µM,0.606
same,relative viability,[10]; first compound 0.08 µM,1.08
same,relative viability,[10]; first compound 0.8 µM,1.06
same,relative viability,[10]; first compound 2.53 µM,0.941
same,relative viability,[10]; first compound 8 µM,0.922
same,relative viability,[11]; first compound 0.08 µM,0.554
same,relative viability,[11]; first compound 0.8 µM,0.56
same,relative viability,[11]; first compound 2.53 µM,0.55
same,relative viability,[11]; first compound 8 µM,0.705
same,relative viability,[12]; first compound 0.08 µM,0.747
same,relative viability,[12]; first compound 0.8 µM,0.831
same,relative viability,[12]; first compound 2.53 µM,0.87
same,relative viability,[12]; first compound 8 µM,0.764
same,relative viability,[13]; first compound 0.08 µM,1.19
same,relative viability,[13]; first compound 0.8 µM,1.21
same,relative viability,[13]; first compound 2.53 µM,1.2
same,relative viability,[13]; first compound 8 µM,1.17
same,relative viability,[14]; first compound 0.08 µM,1.13
same,relative viability,[14]; first compound 0.8 µM,1.22
same,relative viability,[14]; first compound 2.53 µM,1.32
same,relative viability,[14]; first compound 8 µM,1.24
same,relative viability,[15]; first compound 0.08 µM,1.04
same,relative viability,[15]; first compound 0.8 µM,1.05
same,relative viability,[15]; first compound 2.53 µM,1.19
same,relative viability,[15]; first compound 8 µM,1.04
same,relative viability,[16]; first compound 0.08 µM,0.818
same,relative viability,[16]; first compound 0.8 µM,1.04
same,relative viability,[16]; first compound 2.53 µM,1.02
same,relative viability,[16]; first compound 8 µM,0.876
same,relative viability,[17]; first compound 0.08 µM,0.988
same,relative viability,[17]; first compound 0.8 µM,0.898
same,relative viability,[17]; first compound 2.53 µM,1.01
same,relative viability,[17]; first compound 8 µM,0.452
same,relative viability,[18]; first compound 0.08 µM,0.86
same,relative viability,[18]; first compound 0.8 µM,0.979
same,relative viability,[18]; first compound 2.53 µM,0.875
same,relative viability,[18]; first compound 8 µM,1.03
same,relative viability,[19]; first compound 0.08 µM,0.98
same,relative viability,[19]; first compound 0.8 µM,0.931
same,relative viability,[19]; first compound 2.53 µM,0.976
same,relative viability,[19]; first compound 8 µM,0.977
same,relative viability,[20]; first compound 0.08 µM,0.78
same,relative viability,[20]; first compound 0.8 µM,1.05
same,relative viability,[20]; first compound 2.53 µM,1.07
same,relative viability,[20]; first compound 8 µM,1.07
same,relative viability,[21]; first compound 0.08 µM,0.749
same,relative viability,[21]; first compound 0.8 µM,0.971
same,relative viability,[21]; first compound 2.53 µM,0.788
same,relative viability,[21]; first compound 8 µM,0.901
same,relative viability,[22]; first compound 0.08 µM,0.901
same,relative viability,[22]; first compound 0.8 µM,1.22
same,relative viability,[22]; first compound 2.53 µM,1.07
same,relative viability,[22]; first compound 8 µM,1.16
CCCCCCCCCCCC1=C(O)C(=O)C=C(O)C1=O [Embelin] + Cc1nc(NC(=O)N2CCC[C@H]2C(N)=O)sc1-c1ccnc(C(C)(C)C(F)(F)F)c1 [Alpelisib] (partner 2 µM),relative viability,[1]; first compound 0.08 µM,0.718
same,relative viability,[1]; first compound 0.8 µM,0.764
same,relative viability,[1]; first compound 2.53 µM,0.785
same,relative viability,[1]; first compound 8 µM,0.588
same,relative viability,[2]; first compound 0.08 µM,0.612
same,relative viability,[2]; first compound 0.8 µM,0.97
same,relative viability,[2]; first compound 2.53 µM,0.92
same,relative viability,[2]; first compound 8 µM,0.756
same,relative viability,[3]; first compound 0.08 µM,1.12
same,relative viability,[3]; first compound 0.8 µM,1.15
same,relative viability,[3]; first compound 2.53 µM,1.11
same,relative viability,[3]; first compound 8 µM,1.08
same,relative viability,[4]; first compound 0.08 µM,0.882
same,relative viability,[4]; first compound 0.8 µM,0.864
same,relative viability,[4]; first compound 2.53 µM,0.957
same,relative viability,[4]; first compound 8 µM,0.995
same,relative viability,[5]; first compound 0.08 µM,0.848
same,relative viability,[5]; first compound 0.8 µM,0.887
same,relative viability,[5]; first compound 2.53 µM,0.989
same,relative viability,[5]; first compound 8 µM,0.702
same,relative viability,[6]; first compound 0.08 µM,0.891
same,relative viability,[6]; first compound 0.8 µM,0.913
same,relative viability,[6]; first compound 2.53 µM,0.716
same,relative viability,[6]; first compound 8 µM,0.892
same,relative viability,[7]; first compound 0.8 µM,0.291
same,relative viability,[7]; first compound 2.53 µM,0.283
same,relative viability,[7]; first compound 8 µM,0.223
same,relative viability,[8]; first compound 0.08 µM,1.03
same,relative viability,[8]; first compound 0.8 µM,0.988
same,relative viability,[8]; first compound 2.53 µM,1.08
same,relative viability,[8]; first compound 8 µM,1.05
same,relative viability,[9]; first compound 0.08 µM,0.558
same,relative viability,[9]; first compound 0.8 µM,0.533
same,relative viability,[9]; first compound 2.53 µM,0.561
same,relative viability,[9]; first compound 8 µM,0.496
same,relative viability,[10]; first compound 0.08 µM,1.29
same,relative viability,[10]; first compound 0.8 µM,1.31
same,relative viability,[10]; first compound 2.53 µM,1.37
same,relative viability,[10]; first compound 8 µM,0.904
same,relative viability,[11]; first compound 0.08 µM,0.606
same,relative viability,[11]; first compound 0.8 µM,0.901
same,relative viability,[11]; first compound 2.53 µM,0.844
same,relative viability,[11]; first compound 8 µM,0.74
same,relative viability,[12]; first compound 0.08 µM,0.75
same,relative viability,[12]; first compound 0.8 µM,0.736
same,relative viability,[12]; first compound 2.53 µM,0.792
same,relative viability,[12]; first compound 8 µM,0.825
same,relative viability,[13]; first compound 0.08 µM,0.818
same,relative viability,[13]; first compound 0.8 µM,0.925
same,relative viability,[13]; first compound 2.53 µM,0.875
same,relative viability,[13]; first compound 8 µM,0.828
same,relative viability,[15]; first compound 0.08 µM,0.792
same,relative viability,[15]; first compound 0.8 µM,0.743
same,relative viability,[15]; first compound 2.53 µM,0.799
same,relative viability,[15]; first compound 8 µM,0.748
same,relative viability,[23]; first compound 0.08 µM,0.752
same,relative viability,[23]; first compound 0.8 µM,0.972
same,relative viability,[23]; first compound 2.53 µM,0.794
same,relative viability,[23]; first compound 8 µM,0.728
same,relative viability,[16]; first compound 0.08 µM,0.448
same,relative viability,[16]; first compound 0.8 µM,0.574
same,relative viability,[16]; first compound 2.53 µM,0.698
same,relative viability,[16]; first compound 8 µM,0.517
same,relative viability,[17]; first compound 0.08 µM,0.916
same,relative viability,[17]; first compound 0.8 µM,1.05
same,relative viability,[17]; first compound 2.53 µM,1.32
same,relative viability,[17]; first compound 8 µM,0.697
same,relative viability,[18]; first compound 0.08 µM,0.935
same,relative viability,[18]; first compound 0.8 µM,0.804
same,relative viability,[18]; first compound 2.53 µM,0.766
same,relative viability,[18]; first compound 8 µM,0.653
same,relative viability,[19]; first compound 0.08 µM,1.03
same,relative viability,[19]; first compound 0.8 µM,0.929
same,relative viability,[19]; first compound 2.53 µM,1.07
same,relative viability,[19]; first compound 8 µM,0.961
same,relative viability,[20]; first compound 0.08 µM,0.849
same,relative viability,[20]; first compound 0.8 µM,0.914
same,relative viability,[20]; first compound 2.53 µM,0.999
same,relative viability,[20]; first compound 8 µM,0.823
same,relative viability,[21]; first compound 0.08 µM,0.85
same,relative viability,[21]; first compound 2.53 µM,0.933
same,relative viability,[21]; first compound 8 µM,0.847
same,relative viability,[22]; first compound 0.08 µM,0.833
same,relative viability,[22]; first compound 0.8 µM,0.801
same,relative viability,[22]; first compound 2.53 µM,0.856
same,relative viability,[22]; first compound 8 µM,0.648
